# Experiments:
# [1] = molecular target: T1, Alpha glucosidase (Homo sapiens) (UniProt O43451+P10253+P14410+Q2M2H8); experiment: Inhibition of alpha glucosidase (unknown origin) at 0.4 mM relative to control; type: protein assay
# [2] = molecular target: T1, Alpha glucosidase (Homo sapiens); experiment: Inhibition of alpha glucosidase (unknown origin) at 1 mM relative to control; type: protein assay
# [3] = species on record: Rattus norvegicus; experiment: Inhibition of iron-induced lipid peroxidation in rat liver microsomes in presence of NADPH; type: functional, Microsome
# [4] = tested on: Trichostrongylus colubriformis; experiment: Anthelmintic activity against third stage larvae of Trichostrongylus colubriformis by microscope based analysis; type: functional, organism-based
# [5] = tested on: Trichostrongylus colubriformis; experiment: Anthelmintic activity against third stage larvae of Trichostrongylus colubriformis at 0.6 mg/ml by microscope based analysis relative to control; type: functional
# [6] = tested on: NCI-H460; experiment: Antiproliferative activity against human NCI-H460 cells assessed as cell growth inhibition; type: functional
# [7] = tested on: DU-145; experiment: Antiproliferative activity against human DU-145 cells assessed as cell growth inhibition; type: functional
# [8] = tested on: U-937; experiment: Antiproliferative activity against human U-937 cells assessed as cell growth inhibition; type: functional
# [9] = tested on: Leishmania amazonensis; experiment: Antileishmanial activity against Leishmania amazonensis axenic amastigotes assessed as inhibition of parasite growth; type: functional, organism-based
# [10] = tested on: K562; experiment: Antiproliferative activity against human K562 cells assessed as cell growth inhibition; type: functional
# [11] = tested on: HT-29; experiment: Antiproliferative activity against human HT-29 cells assessed as cell growth inhibition; type: functional, cell-based
# [12] = tested on: Trypanosoma brucei brucei; experiment: […] activity against Trypanosoma brucei brucei GUTat 3.1 assessed as inhibition of parasite growth measured after 72 hrs by alamar blue assay; type: functional, organism-based; settings: GUTat 3.1, time 72 hrs
# [13] = tested on: P388; experiment: Antiproliferative activity against mouse P388 cells assessed as cell growth inhibition; type: functional, cell-based
# [14] = tested on: A549; experiment: Antiproliferative activity against human A549 cells assessed as cell growth inhibition; type: functional
# [15] = tested on: HCT-116; experiment: Antiproliferative activity against human HCT-116 cells assessed as cell growth inhibition; type: functional
# [16] = tested on: Caenorhabditis elegans; experiment: Nematocidal activity against Caenorhabditis elegans; type: functional, organism-based
# [17] = tested on: KB; experiment: Antiproliferative activity against human KB cells assessed as cell growth inhibition; type: functional, cell-based
# [18] = Cytotoxicity against mouse 3T3 cells assessed as reduction in cell viability; type: toxicity, cell-based; settings: NIH3T3 cells
# [19] = tested on: MCF7; experiment: Antiproliferative activity against human MCF7 cells assessed as cell growth inhibition; type: functional, cell-based
# [20] = tested on: M14; experiment: Antiproliferative activity against human M14 cells assessed as cell growth inhibition; type: functional
# [21] = Antiplatelet activity against collagen-induced rabbit platelet assessed as inhibition of platelet aggregation at 100 ug/ml relative to control; type: functional; settings: Oryctolagus cuniculus
# [22] = Antiplatelet activity against arachidonate-induced rabbit platelet assessed as inhibition of platelet aggregation at 100 ug/ml relative to control; type: functional; settings: Oryctolagus cuniculus
# [23] = Antiplatelet activity against arachidonate-induced rabbit platelet assessed as inhibition of platelet aggregation at 50 ug/ml relative to control; type: functional; settings: Oryctolagus cuniculus
# [24] = molecular target: Prothrombin (Homo sapiens, UniProt P00734); experiment: Inhibition of thrombin (unknown origin)
# [25] = tested on: Candida albicans; experiment: Antifungal activity against Candida albican assessed as reduction in fluconazole MIC by microdilution method; type: functional
# [26] = molecular target: Cyclooxygenase (Homo sapiens, UniProt P35354+P23219); experiment: Inhibition of COX (unknown origin); type: protein assay
compound,measurement,setting,value
Oc1ccc2cc1Oc1ccc(cc1)CCc1cccc(O)c1Oc1cccc(c1)CC2,inhibition,[1],100%
same,inhibition,[2],52.2%
Oc1ccc2cc1Oc1ccc(cc1)CCc1cc(O)c(O)c(c1)Oc1cccc(c1)CC2,IC50,[3],0.32 µM
COc1cccc(CCc2ccc(O)cc2)c1,IC50,[4],130 µg/mL
same,inhibition at 600 µg/mL,[5],85%
CC(=O)OCC1=CO[C@H](OC(C)=O)[C@@H]2[C@H]1[C@@H]1[C@H](CC[C@@]23CO3)C1(C)C,GI50,[6],4.8 µM
same,GI50,[7],1.4 µM
same,GI50,[8],2.6 µM
same,IC50,[9],7.1 µM
same,GI50,[10],4.8 µM
same,GI50,[11],1.9 µM
same,MIC,[12],14.5 µM
same,IC50,[13],3 µg/mL
same,GI50,[14],9.4 µM
same,GI50,[15],4.7 µM
same,IC50,[16],111 µg/mL
same,IC50,[17],0.28 µg/mL
same,GI50,[18],1.7 µM
same,GI50,[19],6.8 µM
same,GI50,[20],3.9 µM
C=C1CC[C@H]2[C@@H]([C@H]3C(COC(C)=O)=CO[C@H](OC(C)=O)[C@@H]13)C2(C)C,inhibition at 100 µg/mL,[21],100%
same,inhibition at 100 µg/mL,[22],95%
same,inhibition at 50 µg/mL,[23],45%
Oc1cccc(CCc2ccc(Oc3cc(CCc4cccc(O)c4)ccc3O)cc2)c1,IC50,[24],18 µM
Oc1ccc2c(c1)CCc1ccc(cc1)Oc1cc(ccc1O)CCc1ccc-2c(O)c1 [RICCARDI C],MIC,[25],8 µg/mL
same,IC50,[26],53.5 µM

# Source: ChEMBL document CHEMBL5260825, “Chemical Constituents of Bryophytes: Structures and Biological Activity” (J Nat Prod, 2018)
